Patent publication US7713994B2 (Wyeth LLC, priority 2005, dated 2010)
Like-named read-outs stand apart in the source and are kept apart here.

What was measured:
HCT-116 = test: Cytotoxicity assay (SRB), HCT-116; assay type: cell-based; details: Homo sapiens, HCT-116, 72 h, HCT116 cells, SRB, read-out: In Vitro Cellular Activity IC50 HCT116
Method in brief: (§1)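 Percentage survival is derived from SRB absorbance (540 nm) versus untreated cells. Exposures were 3 days, except 6 days for BT474, at 37 °C and 7% CO2.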

LoVo = test: Cytotoxicity assay (SRB), LoVo; assay type: cell-based; details: Homo sapiens, LoVo, 72 h, LoVo cells, SRB, read-out: In Vitro Cellular Activity IC50 LOVO
Method in brief: as §1

BT474 = test: Cytotoxicity assay (SRB), BT474; assay type: cell-based
Method in brief: as §1

MCF-7 = test: Cytotoxicity assay (SRB), MCF-7; assay type: cell-based; details: Homo sapiens, MCF7, 72 h, MCF-7 cells, SRB, read-out: In Vitro Cellular Activity IC50 MCF-7
Method in brief: as §1

cyclin B/CDK1 enzyme = target: T1, cyclin B/CDK1 enzyme (Homo sapiens, UniProt P06493); test: CDK1 ELISA kinase assay (phospho-Rb ser 795 detection); assay type: biochemical
T1 construct: purchased New England BioLabs; host or cells: Sf9 insect cells, recombinant baculovirus
T1 sequence (P06493 whole entry): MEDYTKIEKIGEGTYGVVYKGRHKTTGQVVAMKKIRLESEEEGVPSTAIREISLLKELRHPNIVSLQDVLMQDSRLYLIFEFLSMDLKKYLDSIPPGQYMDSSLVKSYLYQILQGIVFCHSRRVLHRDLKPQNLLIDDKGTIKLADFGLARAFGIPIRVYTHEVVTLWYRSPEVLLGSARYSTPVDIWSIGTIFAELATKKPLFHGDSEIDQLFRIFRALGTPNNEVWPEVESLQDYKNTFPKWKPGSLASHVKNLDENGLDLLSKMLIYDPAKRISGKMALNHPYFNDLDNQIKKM
T1 sequence (P14635 whole entry partner): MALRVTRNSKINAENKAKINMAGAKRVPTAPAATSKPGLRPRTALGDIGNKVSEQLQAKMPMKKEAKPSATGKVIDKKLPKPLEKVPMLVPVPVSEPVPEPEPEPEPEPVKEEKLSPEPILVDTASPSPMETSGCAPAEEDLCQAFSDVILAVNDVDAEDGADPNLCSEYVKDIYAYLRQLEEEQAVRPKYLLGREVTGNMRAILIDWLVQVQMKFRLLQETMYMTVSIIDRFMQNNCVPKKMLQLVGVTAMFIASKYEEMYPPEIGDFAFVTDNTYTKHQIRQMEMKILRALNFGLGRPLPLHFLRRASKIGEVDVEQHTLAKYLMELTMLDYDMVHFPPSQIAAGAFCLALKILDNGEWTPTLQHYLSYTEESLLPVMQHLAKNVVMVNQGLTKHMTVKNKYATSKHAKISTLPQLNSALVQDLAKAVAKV
Method in brief: (§2)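 Wells were coated overnight with GST-Rb C-terminal fragment, then blocked. Compound (10 ug/ml final) and cyclin/CDK enzyme from baculovirus-infected Sf9 cells with 200 μM ATP reacted 1 h at 30° C. Ser795 phosphorylation was detected by ELISA at 450 nm.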

cyclin E/CDK2 enzyme = target: T2, cyclin E/CDK2 enzyme (Homo sapiens, UniProt P24941); test: CDK2 ELISA kinase assay (phospho-Rb ser 795 detection); assay type: biochemical
T2 construct: made in house; host or cells: Sf9 insect cells, recombinant baculovirus
Method in brief: as §2

cyclin D1/cdk 4 enzyme = target: T3, cyclin D1/cdk 4 enzyme (Homo sapiens, UniProt P11802); test: CDK4 ELISA kinase assay (phospho-Rb ser 795 detection); assay type: biochemical
T3 construct: made in house; host or cells: Sf9 insect cells, recombinant baculovirus
T3 sequence (P11802 whole entry, species assumed): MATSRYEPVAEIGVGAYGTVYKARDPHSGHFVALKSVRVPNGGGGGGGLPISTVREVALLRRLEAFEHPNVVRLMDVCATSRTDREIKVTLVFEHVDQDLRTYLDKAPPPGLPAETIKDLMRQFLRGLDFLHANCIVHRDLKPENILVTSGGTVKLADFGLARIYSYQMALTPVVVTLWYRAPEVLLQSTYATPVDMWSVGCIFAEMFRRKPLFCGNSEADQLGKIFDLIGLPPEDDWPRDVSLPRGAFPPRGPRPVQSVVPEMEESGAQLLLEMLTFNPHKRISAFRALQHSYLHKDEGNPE
T3 sequence (P24385 whole entry partner, species assumed): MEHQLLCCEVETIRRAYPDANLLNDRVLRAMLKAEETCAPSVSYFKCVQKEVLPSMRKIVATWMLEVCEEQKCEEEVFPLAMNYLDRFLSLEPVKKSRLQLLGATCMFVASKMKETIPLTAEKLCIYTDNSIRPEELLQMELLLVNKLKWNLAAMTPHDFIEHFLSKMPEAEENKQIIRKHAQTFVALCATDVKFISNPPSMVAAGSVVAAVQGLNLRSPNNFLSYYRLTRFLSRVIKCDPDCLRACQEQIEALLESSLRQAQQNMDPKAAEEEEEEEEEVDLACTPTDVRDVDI
Method in brief: as §2

[1] = Homo sapiens, BT-474, 144 h, BT474 cells, SRB, 6 days; read-out: In Vitro Cellular Activity IC50 BT474
[2] = In Vitro Enzyme Assays, read-out: CDK1 IC50
[3] = In Vitro Enzyme Assays, read-out: CDK2 IC50
[4] = In Vitro Enzyme Assays, 200 μM ATP, read-out: CDK4 IC50
[5] = Homo sapiens, BT-474, 144 h, BT474 cells, 6 days, SRB; read-out: In Vitro Cellular Activity IC50 BT474
[6] = In Vitro Enzyme Assay, cyclin B/CDK1, read-out: CDK1 IC50
[7] = In Vitro Enzyme Assay, cyclin E/CDK2, read-out: CDK2 IC50
[8] = In Vitro Enzyme Assay, cyclin D1/cdk 4, read-out: CDK4 IC50

## CN(C)CCN(C)c1ccc(N/C=C2\C(=O)NC(=O)c3ccc(Br)cc32)cc1 [Example 231, (4Z)-6-Bromo-4-[({4-[[2-(dimethylamino)ethyl](methyl)amino]phenyl}amino)methylene]isoquinoline-1,3(2H,4H)-dione]
HCT-116; three days
  IC50: 4.1 µM
LoVo; three days
  IC50: 10 µM
BT474; [1]
  IC50: 8.3 µM
MCF-7; three days
  IC50: 2.4 µM
Cyclin B/CDK1 enzyme; [2]
  IC50: 29.6 µM
Cyclin E/CDK2 enzyme; [3]
  IC50: > 50 µM
Cyclin D1/cdk 4 enzyme; [4]
  IC50: 3.6 µM

## COc1ccc(-c2ccc3c(c2)C(=CNCc2ccc(O)c(O)c2)C(=O)NC3=O)cc1 [Example 764, 4-[(3,4-Dihydroxy-benzylamino)-methylene]-6-(4-methoxy-phenyl)-4H-isoquinoline-1,3-dione]
HCT-116; 3 days
  IC50: 9.3 µM
LoVo; 3 days
  IC50: 8.6 µM
BT474; [5]
  IC50: 23.1 µM
MCF-7; 3 days
  IC50: 10.3 µM
Cyclin B/CDK1 enzyme; [6]
  IC50: 16.5 µM
Cyclin E/CDK2 enzyme; [7]
  IC50: 7.3 µM
Cyclin D1/cdk 4 enzyme; [8]
  IC50: 0.06 µM

## O=C1NC(=O)c2ccc(-c3ccsc3)cc2/C1=C/Nc1ccc(C2CC=CCN2)cc1 (centres unmarked) [Example 404, 4-{[4-(1,2,3,6-Tetrahydro-pyridin-2-yl)-phenylamino]-methylene}-6-thiophen-3-yl-4H-isoquinoline-1,3-dione]
HCT-116; 3 days
  IC50: 1.6 µM
LoVo; 3 days
  IC50: 3.1 µM
BT474; [5]
  IC50: 3.1 µM
MCF-7; 3 days
  IC50: 7.3 µM
Cyclin B/CDK1 enzyme; [2]
  IC50: 25.3 µM
Cyclin E/CDK2 enzyme; [3]
  IC50: 14.4 µM
Cyclin D1/cdk 4 enzyme; [4]
  IC50: 0.1 µM

## CON(C)C(=O)C1CCN(c2ccc(N/C=C3\C(=O)NC(=O)c4ccc(I)cc43)cc2)CC1 [Example 432, 1-(4-{[(Z)-(6-Iodo-1,3-dioxo-2,3-dihydroisoquinolin-4(1H)-ylidene)methyl]amino}phenyl)-N-methoxy-N-methylpiperidine-4-carboxamide]
HCT-116; 3 days
  IC50: 11.1 µM
LoVo; 3 days
  IC50: 8.5 µM
BT474; [5]
  IC50: 9.3 µM
MCF-7; 3 days
  IC50: 24.2 µM
Cyclin B/CDK1 enzyme; [2]
  IC50: > 50 µM
Cyclin E/CDK2 enzyme; [3]
  IC50: > 50 µM
Cyclin D1/cdk 4 enzyme; [4]
  IC50: 6.5 µM

## CN1Cc2ccc(N/C=C3\C(=O)NC(=O)c4ccc(Br)cc43)cc2C1 [Example 259, (4Z)-6-Bromo-4-{[(2-methyl-2,3-dihydro-1H-isoindol-5-yl)amino]methylene}isoquinoline-1,3(2H,4H)-dione]
HCT-116; three days
  IC50: 2.5 µM
LoVo; three days
  IC50: 3.9 µM
BT474; [1]
  IC50: 6.8 µM
MCF-7; three days
  IC50: 5.5 µM
Cyclin B/CDK1 enzyme; [2]
  IC50: 20.7 µM
Cyclin E/CDK2 enzyme; [3]
  IC50: 2.5 µM
Cyclin D1/cdk 4 enzyme; [4]
  IC50: 1.2 µM

## CN(C)CCS(=O)(=O)c1ccc(N/C=C2\C(=O)NC(=O)c3ccc(Br)cc32)cc1 [Example 243]
HCT-116; three days
  IC50: 5 µM
LoVo; three days
  IC50: 12 µM
BT474; [1]
  IC50: 13 µM
MCF-7; three days
  IC50: 5 µM
Cyclin B/CDK1 enzyme; [2]
  IC50: 12.3 µM
Cyclin E/CDK2 enzyme; [3]
  IC50: 1.9 µM
Cyclin D1/cdk 4 enzyme; [4]
  IC50: 1.2 µM

## O=C1NC(=O)c2ccc(-c3ccco3)cc2/C1=C/NCc1ccc(-c2ccc(F)cc2)c(O)c1 [Example 501, 4-{[(4′-Fluoro-2-hydroxy-biphenyl-4-ylmethyl)-amino]-methylene}-6-furan-2-yl-4H-isoquinoline-1,3-dione]
HCT-116; 3 days
  IC50: 2.6 µM
LoVo; 3 days
  IC50: 2.9 µM
BT474; [5]
  IC50: 3.5 µM
MCF-7; 3 days
  IC50: 1.4 µM
Cyclin B/CDK1 enzyme; [6]
  IC50: > 50 µM
Cyclin E/CDK2 enzyme; [7]
  IC50: 29.3 µM
Cyclin D1/cdk 4 enzyme; [8]
  IC50: 0.03 µM

## O=C1NC(=O)c2ccc(-c3ccoc3)cc2/C1=C/NCc1ccc(-c2ccccc2)c(O)c1 [Example 494, 6-Furan-3-yl-4-{[(2-hydroxy-biphenyl-4-ylmethyl)-amino]-methylene}-4H-isoquinoline-1,3-dione]
HCT-116; 3 days
  IC50: 0.58 µM
LoVo; 3 days
  IC50: 0.52 µM
BT474; [5]
  IC50: 0.53 µM
MCF-7; 3 days
  IC50: 1 µM
Cyclin B/CDK1 enzyme; [6]
  IC50: 42.5 µM
Cyclin E/CDK2 enzyme; [7]
  IC50: 18.4 µM
Cyclin D1/cdk 4 enzyme; [8]
  IC50: 0.03 µM

## C/C=C(\C)C(=O)Nc1ccc(CN/C=C2\C(=O)NC(=O)c3ccc(I)cc32)cc1O [Example 336, (2E)-N-[2-Hydroxy-4-({[(Z)-(6-iodo-1,3-dioxo-2,3-dihydroisoquinolin-4(1H)-ylidene)methyl]amino}methyl)phenyl]-2-methylbut-2-enamide]
HCT-116; three days
  IC50: 12 µM
LoVo; three days
  IC50: 14 µM
BT474; [1]
  IC50: 19 µM
MCF-7; three days
  IC50: 6.1 µM
Cyclin B/CDK1 enzyme; [2]
  IC50: > 50 µM
Cyclin E/CDK2 enzyme; [3]
  IC50: 5.8 µM
Cyclin D1/cdk 4 enzyme; [4]
  IC50: 0.04 µM

## O=C1NC(=O)c2ccc(-c3ccc(Cl)cc3Cl)cc2C1=CNCc1ccc(O)c(O)c1 [Example 823, 6-(2,4-Dichloro-phenyl)-4-[(3,4-dihydroxy-benzylamino)-methylene]-4H-isoquinoline-1,3-dione]
HCT-116; 3 days
  IC50: 11.9 µM
LoVo; 3 days
  IC50: 12.3 µM
BT474; [5]
  IC50: 21.4 µM
MCF-7; 3 days
  IC50: 14.8 µM
Cyclin B/CDK1 enzyme; [6]
  IC50: 9.4 µM
Cyclin E/CDK2 enzyme; [7]
  IC50: 2.4 µM
Cyclin D1/cdk 4 enzyme; [8]
  IC50: 0.22 µM

## COc1ccc(CNC=C2C(=O)NC(=O)c3ccc(-c4ccc[nH]4)cc32)cc1O [Example 836, 4-[(3-Hydroxy-4-methoxy-benzylamino)-methylene]-6-(1H-pyrrol-2-yl)-4H-isoquinoline-1,3-dione]
HCT-116; 3 days
  IC50: 12.7 µM
LoVo; 3 days
  IC50: 6.8 µM
BT474; [5]
  IC50: 12.8 µM
MCF-7; 3 days
  IC50: 17.7 µM
Cyclin B/CDK1 enzyme; [6]
  IC50: 28.3 µM
Cyclin E/CDK2 enzyme; [7]
  IC50: 15.4 µM
Cyclin D1/cdk 4 enzyme; [8]
  IC50: 0.01 µM

## O=C1NC(=O)c2ccc(I)cc2/C1=C/Nc1ccc(N2CCC[C@H]2CO)c(F)c1 (stereo in doubt) [Example 426, 4-{[3-Fluoro-4-(2-hydroxymethyl-pyrrolidin-1-yl)-phenylamino]-methylene}-6-iodo-4H-isoquinoline-1,3-dione]
HCT-116; 3 days
  IC50: 1.6 µM
LoVo; 3 days
  IC50: 2.2 µM
BT474; [5]
  IC50: 4.5 µM
MCF-7; 3 days
  IC50: 2.8 µM
Cyclin B/CDK1 enzyme; [2]
  IC50: > 50 µM
Cyclin E/CDK2 enzyme; [3]
  IC50: 31 µM
Cyclin D1/cdk 4 enzyme; [4]
  IC50: 10 µM

## CCCOc1ccc(CN/C=C2\C(=O)NC(=O)c3ccc(Br)cc32)cc1C(N)=O [Example 353, 5-({[(Z)-(6-Bromo-1,3-dioxo-2,3-dihydroisoquinolin-4(1H)-ylidene)methyl]amino}methyl)-2-propoxybenzamide]
HCT-116; three days
  IC50: 6.1 µM
LoVo; three days
  IC50: 1 µM
BT474; [1]
  IC50: 0.67 µM
MCF-7; three days
  IC50: > 50 µM
Cyclin B/CDK1 enzyme; [2]
  IC50: > 50 µM
Cyclin E/CDK2 enzyme; [3]
  IC50: 31.7 µM
Cyclin D1/cdk 4 enzyme; [4]
  IC50: > 50 µM

## CN1CCN(c2ccc(N/C=C3\C(=O)NC(=O)c4ccc(-c5coc(CN6CCCC6)c5)cc43)nc2)CC1 [Example 449, (4Z)-4-({[5-(4-Methylpiperazin-1-yl)pyridin-2-yl]amino}methylene)-6-[5-(pyrrolidin-1-ylmethyl)-3-furyl]isoquinoline-1,3(2H,4H)-dione]
HCT-116; 3 days
  IC50: 2.6 µM
LoVo; 3 days
  IC50: 2.2 µM
BT474; [5]
  IC50: 8.1 µM
MCF-7; 3 days
  IC50: 3.5 µM
Cyclin B/CDK1 enzyme; [2]
  IC50: > 50 µM
Cyclin E/CDK2 enzyme; [3]
  IC50: > 50 µM
Cyclin D1/cdk 4 enzyme; [4]
  IC50: 3.6 µM

## CN(C)CCCN(C)c1ccc(N/C=C2\C(=O)NC(=O)c3ccc(Br)cc32)cc1 [Example 275, (4Z)-6-Bromo-4-[({4-[[3-(dimethylamino)propyl](methyl)amino]phenyl}amino)methylene]isoquinoline-1,3(2H,4H)-dione]
HCT-116; three days
  IC50: 4.2 µM
LoVo; three days
  IC50: 8.6 µM
BT474; [1]
  IC50: 10 µM
MCF-7; three days
  IC50: 5.3 µM
Cyclin B/CDK1 enzyme; [2]
  IC50: > 50 µM
Cyclin E/CDK2 enzyme; [3]
  IC50: > 50 µM
Cyclin D1/cdk 4 enzyme; [4]
  IC50: 14.4 µM

## CN1CCN(c2ccc(N/C=C3\C(=O)NC(=O)c4ccc(-c5ccoc5)cc43)cc2)CC1 [Example 236, (4Z)-6-(3-Furyl)-4-({[4-(4-methylpiperazin-1-yl)phenyl]amino}methylene)isoquinoline-1,3(2H,4H)-dione]
HCT-116; three days
  IC50: 1.2 µM
LoVo; three days
  IC50: 2.2 µM
BT474; [1]
  IC50: 1 µM
MCF-7; three days
  IC50: 1.1 µM
Cyclin B/CDK1 enzyme; [2]
  IC50: > 50 µM
Cyclin E/CDK2 enzyme; [3]
  IC50: > 50 µM
Cyclin D1/cdk 4 enzyme; [4]
  IC50: 0.22 µM

## CCCCOc1ccc(CN/C=C2\C(=O)NC(=O)c3ccc(Br)cc32)cc1O [Example 148, (4Z)-6-Bromo-4-{[(4-butoxy-3-hydroxybenzyl)amino]methylene}isoquinoline-1,3(2H,4H)-dione]
HCT-116; three days
  IC50: 18 µM
LoVo; three days
  IC50: 22 µM
BT474; [1]
  IC50: 16 µM
MCF-7; three days
  IC50: 25 µM
Cyclin B/CDK1 enzyme; [2]
  IC50: > 50 µM
Cyclin E/CDK2 enzyme; [3]
  IC50: 31.7 µM
Cyclin D1/cdk 4 enzyme; [4]
  IC50: 0.44 µM
